PubChem BioAssay (NCI)
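Test compounds were applied to cells in 96-well plates for 48 hours at 5 doses. At the GI50, growth is halved. TGI marks complete inhibition of growth.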

Assays:
Assay in all cases: NCI tumour cell line growth inhibition, 48 h
A498 renal = tested on: A498 renal
HCT-15 colon = tested on: HCT-15 colon
MALME-3M melanoma = tested on: MALME-3M melanoma
LOX IMVI melanoma = tested on: LOX IMVI melanoma
DU-145 prostate = tested on: DU-145 prostate
HL-60(TB) leukemia = tested on: HL-60(TB) leukemia
COLO 205 colon = tested on: COLO 205 colon
SNB-75 CNS = tested on: SNB-75 CNS
IGROV1 ovarian = tested on: IGROV1 ovarian
UACC-257 melanoma = tested on: UACC-257 melanoma
MDA-MB-231 breast = tested on: MDA-MB-231 breast
NCI-H522 lung = tested on: NCI-H522 lung
SR leukemia = tested on: SR leukemia
ACHN renal = tested on: ACHN renal
SK-MEL-5 melanoma = tested on: SK-MEL-5 melanoma
HCT-116 colon = tested on: HCT-116 colon
NCI-H23 lung = tested on: NCI-H23 lung
T-47D breast = tested on: T-47D breast
SN12C renal = tested on: SN12C renal
PC-3 prostate = tested on: PC-3 prostate
RPMI-8226 leukemia = tested on: RPMI-8226 leukemia
MOLT-4 leukemia = tested on: MOLT-4 leukemia
SF-295 CNS = tested on: SF-295 CNS
K-562 leukemia = tested on: K-562 leukemia
UO-31 renal = tested on: UO-31 renal
MDA-MB-435 = tested on: MDA-MB-435
NCI-H460 lung = tested on: NCI-H460 lung
TK-10 renal = tested on: TK-10 renal
HOP-92 NSCLC = tested on: HOP-92 NSCLC
SW-620 colon = tested on: SW-620 colon
M14 melanoma = tested on: M14 melanoma
UACC-62 melanoma = tested on: UACC-62 melanoma
CCRF-CEM leukemia = tested on: CCRF-CEM leukemia
EKVX NSCLC = tested on: EKVX NSCLC
SF-539 CNS = tested on: SF-539 CNS
SF-268 CNS = tested on: SF-268 CNS
SNB-19 CNS = tested on: SNB-19 CNS
SK-OV-3 ovarian = tested on: SK-OV-3 ovarian
786-0 renal = tested on: 786-0 renal
NCI-H226 lung = tested on: NCI-H226 lung
KM12 colon = tested on: KM12 colon
OVCAR-4 ovarian = tested on: OVCAR-4 ovarian
BT-549 breast = tested on: BT-549 breast
A549 NSCLC = tested on: A549 NSCLC
U251 CNS = tested on: U251 CNS
SK-MEL-28 melanoma = tested on: SK-MEL-28 melanoma
MCF7 breast = tested on: MCF7 breast
HOP-62 NSCLC = tested on: HOP-62 NSCLC
SK-MEL-2 melanoma = tested on: SK-MEL-2 melanoma
HCC-2998 colon = tested on: HCC-2998 colon
HS 578T breast = tested on: HS 578T breast
OVCAR-8 ovarian = tested on: OVCAR-8 ovarian
HT29 colon = tested on: HT29 colon
CAKI-1 renal = tested on: CAKI-1 renal
RXF 393 renal = tested on: RXF 393 renal
OVCAR-3 ovarian = tested on: OVCAR-3 ovarian
OVCAR-5 ovarian = tested on: OVCAR-5 ovarian
NCI/ADR-RES ovarian = tested on: NCI/ADR-RES ovarian
MDA-N = tested on: MDA-N

Structure (SMILES): Nc1nc(N(Cc2ccccc2)c2ccccc2)c2cn[nH]c2n1
- GI50 (A498 renal): 3.03 µM
- TGI (A498 renal): 9.23 µM
- GI50 (HCT-15 colon): 4.24 µM
- TGI (HCT-15 colon): > 100 µM
- GI50 (MALME-3M melanoma): 4.23 µM
- TGI (MALME-3M melanoma): > 100 µM
- GI50 (LOX IMVI melanoma): 3.91 µM
- TGI (LOX IMVI melanoma): > 100 µM
- GI50 (DU-145 prostate): 4.57 µM
- TGI (DU-145 prostate): > 100 µM
- GI50 (HL-60(TB) leukemia): 1.57 µM
- TGI (HL-60(TB) leukemia): 6.6 µM
- GI50 (COLO 205 colon): 2.9 µM
- TGI (COLO 205 colon): > 100 µM
- GI50 (SNB-75 CNS): 2.47 µM
- TGI (SNB-75 CNS): > 100 µM
- GI50 (IGROV1 ovarian): 4.16 µM
- TGI (IGROV1 ovarian): > 100 µM
- GI50 (UACC-257 melanoma): 9.84 µM
- TGI (UACC-257 melanoma): > 100 µM
- GI50 (MDA-MB-231 breast): 6.41 µM
- TGI (MDA-MB-231 breast): > 100 µM
- GI50 (NCI-H522 lung): 2.62 µM
- TGI (NCI-H522 lung): > 100 µM
- GI50 (SR leukemia): 1.3 µM
- TGI (SR leukemia): 5.64 µM
- GI50 (ACHN renal): 5 µM
- TGI (ACHN renal): > 100 µM
- GI50 (SK-MEL-5 melanoma): 3.04 µM
- TGI (SK-MEL-5 melanoma): > 100 µM
- GI50 (HCT-116 colon): 3.19 µM
- TGI (HCT-116 colon): > 100 µM
- GI50 (NCI-H23 lung): 6.06 µM
- TGI (NCI-H23 lung): > 100 µM
- GI50 (T-47D breast): 4.34 µM
- TGI (T-47D breast): > 100 µM
- GI50 (SN12C renal): 5.71 µM
- TGI (SN12C renal): > 100 µM
- GI50 (PC-3 prostate): 4.56 µM
- TGI (PC-3 prostate): > 100 µM
- GI50 (RPMI-8226 leukemia): 1.68 µM
- TGI (RPMI-8226 leukemia): > 100 µM
- GI50 (MOLT-4 leukemia): 3.21 µM
- TGI (MOLT-4 leukemia): > 100 µM
- GI50 (SF-295 CNS): 2.87 µM
- TGI (SF-295 CNS): 62.4 µM
- GI50 (K-562 leukemia): 2.49 µM
- TGI (K-562 leukemia): > 100 µM
- GI50 (UO-31 renal): 1.8 µM
- TGI (UO-31 renal): > 100 µM
- GI50 (MDA-MB-435): 2.63 µM
- TGI (MDA-MB-435): > 100 µM
- GI50 (NCI-H460 lung): 4.39 µM
- TGI (NCI-H460 lung): > 100 µM
- GI50 (TK-10 renal): 4.72 µM
- TGI (TK-10 renal): > 100 µM
- GI50 (HOP-92 NSCLC): 1.42 µM
- TGI (HOP-92 NSCLC): > 100 µM
- GI50 (SW-620 colon): 3.93 µM
- TGI (SW-620 colon): > 100 µM
- GI50 (M14 melanoma): 5.22 µM
- TGI (M14 melanoma): > 100 µM
- GI50 (UACC-62 melanoma): 4.32 µM
- TGI (UACC-62 melanoma): > 100 µM
- GI50 (CCRF-CEM leukemia): 4.32 µM
- TGI (CCRF-CEM leukemia): > 100 µM
- GI50 (EKVX NSCLC): 3.57 µM
- TGI (EKVX NSCLC): > 100 µM
- GI50 (SF-539 CNS): 2.95 µM
- TGI (SF-539 CNS): > 100 µM
- GI50 (SF-268 CNS): 4.21 µM
- TGI (SF-268 CNS): > 100 µM
- GI50 (SNB-19 CNS): > 100 µM
- TGI (SNB-19 CNS): > 100 µM
- GI50 (SK-OV-3 ovarian): 3.73 µM
- TGI (SK-OV-3 ovarian): > 100 µM
- GI50 (786-0 renal): 4.63 µM
- TGI (786-0 renal): > 100 µM
- GI50 (NCI-H226 lung): 6.35 µM
- TGI (NCI-H226 lung): > 100 µM
- GI50 (KM12 colon): 3.23 µM
- TGI (KM12 colon): > 100 µM
- GI50 (OVCAR-4 ovarian): 6.37 µM
- TGI (OVCAR-4 ovarian): > 100 µM
- GI50 (BT-549 breast): 3.95 µM
- TGI (BT-549 breast): > 100 µM
- GI50 (A549 NSCLC): 5.47 µM
- TGI (A549 NSCLC): > 100 µM
- GI50 (U251 CNS): 4.35 µM
- TGI (U251 CNS): > 100 µM
- GI50 (SK-MEL-28 melanoma): 16.9 µM
- TGI (SK-MEL-28 melanoma): > 100 µM
- GI50 (MCF7 breast): 4.34 µM
- TGI (MCF7 breast): > 100 µM
- GI50 (HOP-62 NSCLC): 3.47 µM
- TGI (HOP-62 NSCLC): > 100 µM
- GI50 (SK-MEL-2 melanoma): 3.14 µM
- TGI (SK-MEL-2 melanoma): > 100 µM
- GI50 (HCC-2998 colon): 6.41 µM
- TGI (HCC-2998 colon): > 100 µM
- GI50 (HS 578T breast): 2.7 µM
- TGI (HS 578T breast): 7.91 µM
- GI50 (OVCAR-8 ovarian): 6.01 µM
- TGI (OVCAR-8 ovarian): > 100 µM
- GI50 (HT29 colon): 3.54 µM
- TGI (HT29 colon): > 100 µM
- GI50 (CAKI-1 renal): 3.67 µM
- TGI (CAKI-1 renal): > 100 µM
- GI50 (RXF 393 renal): 2.93 µM
- TGI (RXF 393 renal): 22 µM
- GI50 (OVCAR-3 ovarian): 3.34 µM
- TGI (OVCAR-3 ovarian): 41.1 µM

Structure (SMILES): Nc1nc(Cl)c(CO)c(NCC2(CO)CC(CCc3ccccc3)C2)n1 (stereo not drawn)
- TGI (A498 renal): > 100 µM
- TGI (HCT-15 colon): > 100 µM
- TGI (MALME-3M melanoma): 42.5 µM
- TGI (LOX IMVI melanoma): 50.4 µM
- TGI (DU-145 prostate): > 100 µM
- TGI (HL-60(TB) leukemia): 28.9 µM
- TGI (COLO 205 colon): > 100 µM
- TGI (SNB-75 CNS): 51.2 µM
- TGI (UACC-257 melanoma): 32.4 µM
- TGI (MDA-MB-231 breast): 39.1 µM
- TGI (NCI-H522 lung): 86.3 µM
- TGI (SR leukemia): > 100 µM
- TGI (ACHN renal): > 100 µM
- TGI (SK-MEL-5 melanoma): 39.4 µM
- TGI (HCT-116 colon): 31.9 µM
- TGI (NCI-H23 lung): 37.5 µM
- TGI (SN12C renal): > 100 µM
- TGI (PC-3 prostate): > 100 µM
- TGI (RPMI-8226 leukemia): 35.2 µM
- TGI (MOLT-4 leukemia): 14.7 µM
- TGI (SF-295 CNS): > 100 µM
- TGI (K-562 leukemia): 43.1 µM
- TGI (UO-31 renal): 68.8 µM
- TGI (MDA-MB-435): 26.5 µM
- TGI (NCI-H460 lung): 56.9 µM
- TGI (TK-10 renal): > 100 µM
- TGI (HOP-92 NSCLC): 73.1 µM
- TGI (SW-620 colon): 54.2 µM
- TGI (CCRF-CEM leukemia): 69.5 µM
- TGI (EKVX NSCLC): > 100 µM
- TGI (SF-539 CNS): > 100 µM
- TGI (OVCAR-5 ovarian): > 100 µM
- TGI (NCI/ADR-RES ovarian): 73.8 µM
- TGI (SF-268 CNS): > 100 µM
- TGI (SNB-19 CNS): > 100 µM
- TGI (786-0 renal): > 100 µM
- TGI (NCI-H226 lung): 36.3 µM
- TGI (KM12 colon): 14.2 µM
- TGI (OVCAR-4 ovarian): 54.9 µM
- TGI (BT-549 breast): 71.1 µM
- TGI (MDA-N): > 100 µM
- TGI (A549 NSCLC): 34.5 µM
- TGI (U251 CNS): > 100 µM
- TGI (SK-MEL-28 melanoma): 47 µM
- TGI (MCF7 breast): 45.5 µM
- TGI (HOP-62 NSCLC): 99.3 µM
- TGI (HCC-2998 colon): > 100 µM
- TGI (OVCAR-8 ovarian): 35.6 µM
- TGI (HT29 colon): 81.6 µM
- TGI (CAKI-1 renal): > 100 µM
- TGI (RXF 393 renal): 63 µM
- TGI (OVCAR-3 ovarian): 63.1 µM

Structure (SMILES): c1ccc(CCCCNCc2cc(CNCCCCc3ccccc3)cc(CNCCCCc3ccccc3)c2)cc1
- TGI (HCT-15 colon): 0.368 µM
- TGI (DU-145 prostate): 2.07 µM
- TGI (HL-60(TB) leukemia): 0.434 µM
- TGI (COLO 205 colon): 0.644 µM
- TGI (ACHN renal): 2.95 µM
- TGI (HCT-116 colon): 6.42 µM
- TGI (NCI-H23 lung): 2.11 µM
- TGI (SN12C renal): 23.5 µM
- TGI (SF-295 CNS): 3.06 µM
- TGI (K-562 leukemia): > 100 µM
- TGI (UO-31 renal): 0.949 µM
- TGI (NCI-H460 lung): > 100 µM
- TGI (M14 melanoma): 0.33 µM
- TGI (CCRF-CEM leukemia): 0.432 µM
- TGI (OVCAR-5 ovarian): 3.22 µM
- TGI (NCI/ADR-RES ovarian): 1.1 µM
- TGI (SNB-19 CNS): 0.908 µM
- TGI (SK-OV-3 ovarian): 3.41 µM
- TGI (786-0 renal): 26.4 µM
- TGI (BT-549 breast): 2.83 µM
- TGI (MDA-N): 10.2 µM
- TGI (A549 NSCLC): 0.326 µM
- TGI (SK-MEL-28 melanoma): 1.84 µM
- TGI (OVCAR-3 ovarian): 2.77 µM
